In one experiment the test system is DKK-1. As to the kind of experiment: DHT-induced DKK-1 expression western blot in hair follicle dermal papilla cells. The format is cell-based, human. The following applies: HHFDPC; for inhibiting effect on DKK-1 expression (in words): DHT-induced, peptides at different concentrations (FIG. 4, FIG. 7). On the procedure:
To confirm whether a peptide consisting of the amino acid sequence of SEQ ID NO: 1 inhibits the expression of DKK-1, a hair loss-related factor, in hair follicle cells. Human hair follicle dermal papilla cells were seeded in 6-well plates at a density of 4×10^5 cells/well and cultured for 24 hours. After replacing with serum-free mesenchymal stem cell medium, the cells were cultured for 24 hours. The peptides were treated at concentrations of 10 μM, 50 μM, or 100 μM, respectively, and simultaneously treated with DHT, an inducer of hair loss protein DKK-1, at a concentration of 100 nM. As a positive control group, 5 μM of finasteride, a drug that inhibits androgens, was treated. DHT is known as a hair loss hormone that increases the expression of DKK-1 (Dickkopf-related protein 1), a hair loss-inducing factor, by activating androgen receptors. After culturing at 37° C. for 24 hours, the cells were washed with PBS, treated with lysis buffer to prepare cell lysates, and equal amounts of protein samples were prepared by BCA quantification. Electrophoresis was performed using a 10% SDS-PAGE gel. Proteins separated by SDS PAGE were transferred to a PVDF membrane. Blocking was performed at room temperature for 30 minutes using 5% skim milk. DKK-1 (cell signaling, USA) antibody was diluted 1:1000 in 3% BSA and reacted with the membrane at 4° C. for 16 hours. The membrane was then washed three times with 0.1% PBS-T (0.1% Tween-20 in PBS) for 15 minutes each. The secondary antibody was diluted 1:2000 in 5% skim milk and reacted at room temperature for 1 hour. The membrane was then washed three times with 0.1% PBS-T (0.1% Tween-20 in PBS) for 15 minutes each. After treatment with ECL solution (GE Healthcare, USA), protein band detection and densitometry were performed using ImageQuant 800 (Amersham, USA).
The effect of inhibiting the expression of hair loss-related factors was compared between the novel peptide consisting of the amino acid sequence of SEQ ID NO: 1 and the peptide consisting of the amino acid sequence of SEQ ID NO: 10. The experiment was conducted in the same manner as described in Example 5, and it was confirmed whether the expression of DKK-1, a hair loss-related factor, was inhibited after treating HHFDPC with peptides at different concentrations.

Another experiment deals with β-catenin. The experiment in a line: Nuclear β-catenin western blot (promotion of proliferation mechanism of hair follicle cells). The settings on record: HHFDPC; for translocation of β-catenin from the cytoplasm to the nucleus (in words): peptides at various concentrations (FIG. 6). The format is cell-based, human. On the procedure: To confirm the effect of a peptide consisting of the amino acid sequence of SEQ ID NO: 1 on promoting the proliferation mechanism of hair follicle cells. Specifically, human hair follicle dermal papilla cells were seeded in a 6-well plate at a density of 4×10^5 cells/well and cultured for 24 hours. After replacing with serum-free mesenchymal stem cell medium, the cells were cultured for 24 hours. A peptide was treated at concentrations of 10 μM, 50 μM, or 100 μM, respectively, and incubated at 37° C. for 24 hours. As a positive control group, 10 ng/ml of recombinant human Wnt-3a protein was treated. After washing with PBS, nucleoproteins were isolated using a nucleoprotein extraction kit (Thermo scientific, USA) and quantified with BCA to prepare equal amounts of protein samples. The proteins separated by electrophoresis using a 10% SDS-PAGE gel were transferred to a PVDF membrane. Blocking was performed at room temperature for 30 minutes using 5% skim milk. β-catenin (cell signaling, USA) and HDAC1 (santa cruz, USA) antibodies were diluted 1:1000 in 3% BSA and reacted with the membrane at 4° C. for 16 hours. The membrane was washed three times with 0.1% PBS-T (0.1% Tween-20 in PBS) for 15 minutes each. The secondary antibody was diluted 1:2000 in 5% skim milk and reacted at room temperature for 1 hour. The membrane was then washed three times with 0.1% PBS-T (0.1% Tween-20 in PBS) for 15 minutes each. After treatment with ECL solution (GE Healthcare, USA), the membrane was detected.
The proliferation-promoting effects of a novel peptide consisting of the amino acid sequence of SEQ ID NO: 1 and a peptide consisting of the amino acid sequence of SEQ ID NO: 10 on hair follicle cells were compared. The experiment was conducted in the same manner as described in Example 3, in which HHFDPC was treated with peptides at various concentrations and the translocation of β-catenin from the cytoplasm to the nucleus was measured.

Experiment [1] relates to human hair follicle dermal papilla cells. The experiment in a line: Hair follicle cell proliferation (SRB staining, absorbance 560 nm). The format is cell-based. The settings on record: HHFDPC; for proliferation effect on hair follicle cells (in words): peptides at different concentrations (FIG. 1, FIG. 5). The method, then:
To confirm the effect of a peptide consisting of the amino acid sequence of SEQ ID NO: 1 on promoting the proliferation of hair follicle cells. Specifically, human hair follicle dermal papilla cells were seeded in a 96-well plate at a density of 4×10^3 cells/well and cultured for 24 hours. After replacing with serum-free mesenchymal stem cell medium, the cells were cultured for 24 hours. The above peptide was treated at concentrations of 10 μM, 50 μM, or 100 μM, respectively, and incubated at 37° C. for 72 hours. As a positive control group, 1 μM of Minoxidil, a hair loss treatment drug, was treated. After completion of culturing, the culture supernatant was removed and the cells were fixed using ethanol. After washing with PBS, staining was performed by treating with SRB solution. After washing with 1% acetic acid, cells were observed under a microscope and destained by treating with 20 mM tris solution. Cell viability was measured by measuring absorbance at a wavelength of 560 nm using a spectrophotometer (SpectraMax iD3, Molecular Devices (USA, CA)).
The proliferation effects of a novel peptide consisting of the amino acid sequence of SEQ ID NO: 1 and a peptide consisting of the amino acid sequence of SEQ ID NO: 10 disclosed in KR10-1285259 (Table 3) on hair follicle cell proliferation were compared. The experiment was conducted in the same manner as described in Example 2, and the cell proliferation effect was measured after treating HHFDPC with peptides at different concentrations.

The test system of the next experiment is Cyclin D1. The experiment in a line: RT-PCR expression of Cyclin D1 in hair follicle dermal papilla cells. The format is cell-based, human. The following applies: HHFDPC, peptide 10, 50 or 100 μM, 24 hours, maximum effect (FIG. 3). The method, then: (§1) To confirm the effect of a peptide consisting of the amino acid sequence of SEQ ID NO: 1 on promoting hair follicle cell activity. Human hair follicle dermal papilla cells were seeded in 6-well plates at a density of 4×10^5 cells/well and cultured for 24 hours. After replacing with serum-free mesenchymal stem cell medium, the cells were cultured for 24 hours. A peptide was treated at concentrations of 10 μM, 50 μM, or 100 μM, respectively, and incubated at 37° C. for 24 hours. As a positive control group, 10 ng/mL of recombinant human Wnt-3a protein was treated. After washing with PBS, RNA was isolated by treating with 300 μL of easy blue (intron, Korea). After RNA quantification, cDNA synthesis was performed using a cDNA synthesis kit (enzynomics, Korea). Electrophoresis was performed on a 1.5% agarose gel and band detection was performed using a Bio-Rad gel image system.

For a further experiment, the system named is c-Myc. As to the kind of experiment: RT-PCR expression of c-Myc in hair follicle dermal papilla cells. The format is cell-based, human. The following applies: HHFDPC, peptide 10, 50 or 100 μM, 24 hours, maximum effect (FIG. 3). On the procedure: as §1
The test system of a further experiment is Lef-1. The experiment in a line: RT-PCR expression of Lef-1 in hair follicle dermal papilla cells. The settings on record: HHFDPC, peptide 10, 50 or 100 μM, 24 hours, maximum effect (FIG. 3). The format is cell-based, human. The method, then: as §1

These results are taken from patent publication US20260265302A1, “PEPTIDE WITH ACTIVITY OF PROMOTING HAIR GROWTH OR INHIBITING HAIR LOSS AND USE THEREOF” (CAREGEN CO., LTD., priority 2023, published 2026).

“Also recorded” adds a separate entry of the source.

For AERRREKCRC [SEQ ID NO: 1], the “inhibiting effect on DKK-1 expression (in words)” value with DKK-1 is on record as “exhibit an inhibiting effect on DKK-1 expression in a concentration-dependent manner; also recorded: inhibiting DKK-1 expression induced by DHT”. Moreover, the “DKK-1 expression level reduction compared to the negative control group (DHT treatment group)” value in the experiment on DKK-1 (high-concentration peptide treatment group, DHT 100 nM, 24 hours, western blot (FIG. 4)) is “about 50%”. In addition, in the experiment on DKK-1 (same concentration, SEQ ID NO: 1 vs SEQ ID NO: 10 (FIG. 7)), the “ability to inhibit the expression of DKK-1 compared with the known peptide” value is recorded as “significantly higher ability to inhibit the expression of DKK-1 than the known peptide”. Further, in the experiment with β-catenin (peptide 10, 50 or 100 μM, 24 hours, nucleoprotein western blot, maximum effect (FIG. 2)), the “nuclear translocation of β-catenin from the cytoplasm to the nucleus, increase” value is “up to 1.35 times”. Also, the “expression of β-catenin (in words)” value in the experiment on β-catenin (peptide 10, 50 or 100 μM, 24 hours, western blot (FIG. 2)) was “expression of β-catenin increases”. Further, the “translocation of β-catenin from the cytoplasm to the nucleus (in words)” value in the experiment with β-catenin was “promote the translocation of β-catenin from the cytoplasm to the nucleus in a concentration-dependent manner”. Besides, in the experiment on β-catenin (same concentration, SEQ ID NO: 1 vs SEQ ID NO: 10 (FIG. 6)), the “proliferation mechanism promoting activity compared with the known peptide” value is given as “significantly higher proliferation mechanism promoting activity than the known peptide”. Further, in experiment [1] (peptide 10, 50 or 100 μM, 72 hours, maximum effect (FIG. 1)), the “proliferation increase of hair follicle cells” value was “up to 155%”. Moreover, the “proliferation effect on hair follicle cells (in words)” value in experiment [1] was “proliferation was induced in a concentration-dependent manner; also recorded: exhibit a proliferation effect on hair follicle cells in a concentration-dependent manner”. The “hair follicle cell proliferation promotion activity compared with the known peptide” value in experiment [1] (same concentration, SEQ ID NO: 1 vs SEQ ID NO: 10 (FIG. 5)) is recorded as “significantly higher hair follicle cell proliferation promotion activity than the known peptide”. The “Cyclin D1 expression increase compared to the control group” value in the experiment with Cyclin D1 is listed as “up to 1.96 times”. The “c-Myc expression increase compared to the control group” value in the experiment with c-Myc is reported as “up to 1.62 times”. Also, the “Lef-1 expression increase compared to the control group” value in the experiment on Lef-1 was “up to 3 times”.

In the case of “AERRRELCRC [SEQ ID NO: 10, reference compound]”, in the experiment with DKK-1, the “inhibiting effect on DKK-1 expression (in words)” value is “exhibit an inhibiting effect on DKK-1 expression in a concentration-dependent manner”. Besides, in the experiment on β-catenin, the “translocation of β-catenin from the cytoplasm to the nucleus (in words)” value is “promote the translocation of β-catenin from the cytoplasm to the nucleus in a concentration-dependent manner”. For the same sequence, the “proliferation effect on hair follicle cells (in words)” value in experiment [1] is given as “exhibit a proliferation effect on hair follicle cells in a concentration-dependent manner”.
